Test results: ChEMBL document CHEMBL4665675 (J Med Chem, 2020)
pIC50: −log10 of the molar value. Each block holds one compound with its values, some of them ahead of it.

Key:
Tubulin = test: Inhibition of tubulin polymerization (unknown origin); assay type: protein-complex assay, Homo sapiens
DU-145 = test: Antiproliferative activity against human DU145 cells incubated for 72 hrs by WST assay; assay type: functional, cell-based; conditions: DU-145, 72 h
PANC-1 [1] = test: Antiproliferative activity against human PANC1 cells incubated for 72 hrs by WST assay; assay type: functional, cell-based; conditions: PANC-1, 72 h
KB 3-1 = test: Antiproliferative activity against human KB-31 cells incubated for 96 hrs by spectrophotometric method; assay type: functional, cell-based; conditions: KB 3-1, 96 h
[2] = Antiproliferative activity against human KB-8511 cells incubated for 96 hrs by spectrophotometric method; assay type: functional, cell-based; conditions: KB-ChR-8-5-11, 96 h
Bos taurus = organism: Bos taurus; test: Inhibition of bovine brain tubulin polymerization preincubated for 15 mins followed by GTP addition and measured for 30 mins by spectrophotometric method
HaCaT = test: Cytotoxicity against human HaCaT cells incubated for 72 hrs by MTT assay; assay type: functional, cell-based
PANC-1 [3] = test: Cytotoxicity against human PANC1 cells incubated for 72 hrs by MTT assay; assay type: functional, cell-based; conditions: PANC-1, 72 h
[4] = Inhibition of bovine brain tubulin polymerization preincubated for 15 mins followed by GTP addition; parameters: species or system Bos taurus
KB = test: Antiproliferative activity against human KB cells incubated for 36 hrs; assay type: functional, cell-based
P388 = test: Antiproliferative activity against mouse P388 cells incubated for 36 hrs; assay type: functional, cell-based; conditions: P388, 36 h
A549 = test: Antiproliferative activity against human A549 cells incubated for 36 hrs; assay type: functional, cell-based; conditions: A549, 36 h
RPMI-7951 = test: Antiproliferative activity against human RPMI-7951 cells incubated for 36 hrs; assay type: functional, cell-based; conditions: RPMI-7951, 36 h
HCT-8 = test: Antiproliferative activity against human HCT-8 cells incubated for 36 hrs; assay type: functional, cell-based; conditions: HCT-8, 36 h
TE-671 = test: Antiproliferative activity against human TE-671 cells incubated for 36 hrs; assay type: functional, cell-based; conditions: TE-671, 36 h
HeLa = test: Cytotoxicity against human HeLa cells after 24 to 72 hrs by Cell Titer Blue assay; assay type: cell-based
[5] = target: T1, carboxylesterase 1 (CES1) (Homo sapiens, UniProt P23141); test: Substrate activity at human carboxylesterase 1 expressed in baculovirus infected Sf9 insect cells assessed as enzyme-catalysed compound cleavage incubated for 2 hrs by HPLC analysis; assay type: ADME; conditions: read-out: Activity
T1 sequence (P23141 whole entry): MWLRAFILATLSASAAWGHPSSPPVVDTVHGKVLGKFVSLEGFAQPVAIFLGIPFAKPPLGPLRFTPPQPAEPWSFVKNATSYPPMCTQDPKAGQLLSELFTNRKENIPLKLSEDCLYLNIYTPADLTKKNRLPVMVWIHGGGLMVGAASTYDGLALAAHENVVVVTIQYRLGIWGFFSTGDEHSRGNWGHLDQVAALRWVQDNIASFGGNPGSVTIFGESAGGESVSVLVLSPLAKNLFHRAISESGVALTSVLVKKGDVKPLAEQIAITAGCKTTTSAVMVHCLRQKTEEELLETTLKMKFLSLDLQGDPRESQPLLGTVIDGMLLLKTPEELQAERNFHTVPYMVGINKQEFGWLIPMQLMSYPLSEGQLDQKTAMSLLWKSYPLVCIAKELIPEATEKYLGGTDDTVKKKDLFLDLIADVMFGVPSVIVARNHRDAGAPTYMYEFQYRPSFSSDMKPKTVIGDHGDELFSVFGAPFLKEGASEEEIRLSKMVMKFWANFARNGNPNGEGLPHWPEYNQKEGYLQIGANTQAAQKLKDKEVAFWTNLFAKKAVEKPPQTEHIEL

BJAB = test: Cytotoxicity against human BJAB cells; assay type: functional, cell-based
[6] = Inhibition of calf brain tubulin by turbidimetry; parameters: species or system Bos taurus
SF-268 [7] = test: Cytotoxicity against human SF-268 cells by calcein AM reagent based fluorescence method; assay type: functional, cell-based
SF-268 [8] = test: Cytotoxicity against human SF-268 cells by cell titer-glow assay; assay type: functional, cell-based
HCT-116 [9] = test: Cytotoxicity against human HCT-116 cells by calcein AM reagent based fluorescence method; assay type: functional, cell-based
HCT-116 [10] = test: Cytotoxicity against human HCT-116 cells by cell titer-glow assay; assay type: functional, cell-based
[11] = Inhibition of porcine tubulin polymerization by UV/visible spectrophotometry; parameters: species or system Sus scrofa

SMILES: COc1cc2c(c(OC)c1OC)-c1ccc(OC)c(=O)cc1CCC2
- pIC50 (Tubulin): 5.59

- pIC50 (DU-145): 5.85
- pIC50 (PANC-1 [1]): 5.15
SMILES: COC(=O)NC1CCc2cc(OC)c(OC)c(OC)c2-c2ccc(F)cc21 (centres undefined)

- pIC50 (KB 3-1): < 6.00
- inhibition (Bos taurus): 0%
SMILES: COc1c(CNC(C)=O)c2c(c(OC)c1OC)-c1ccc(OC)c(=O)cc1[C@@H](NC(C)=O)CC2
- pIC50 [2]: < 6.00

SMILES: COc1cc2c(c(OC)c1OC)-c1ccc(OC)c(=O)cc1C(=O)CC2
- pIC50 (Tubulin): 5.96

SMILES: C=C1COc2cc3c(cc21)-c1c(cc(OC)c(OC)c1OC)CC[C@@H]3NC(=O)COC(=O)Cc1nc(CCCCCCCCCC(=O)OC(COC(=O)CCCCCCCCCCCCCCC)COP(=O)([O-])OCC[N+](C)(C)C)n[nH]1 (some centres undefined)
- pIC50 (HaCaT): 6.40
- pIC50 (PANC-1 [3]): 6.40

- pIC50 [4]: 5.62
- pIC50 (KB): 6.85
- pIC50 (P388): 7.66
- pIC50 (A549): 6.60
- pIC50 (HCT-8): 6.80
SMILES: C=C1Cc2cc(OC)c(OC)c(OC)c2-c2ccc(SC)c(=O)cc21
- pIC50 (RPMI-7951): 10.08
- pIC50 (TE-671): 10.08

- metabolised at 2 h [5]: 13%
SMILES: COc1cc2c(c(OC)c1OC)-c1ccc(NCCC(O)C(=O)N[C@@H](CC(C)C)C(=O)OC3CCCC3)c(=O)cc1[C@@H](NC(C)=O)CC2 (some centres undefined)
- pIC50 (HeLa): 6.64

SMILES: CCCCCCCCCCCC(=O)OCc1cn([C@H]2CCc3cc(OC)c(OC)c(OC)c3-c3ccc(OC)c(=O)cc32)nn1
- pIC50 (BJAB): 8.40

- pIC50 [6]: 6.37
SMILES: COc1ccc2c(c1)C(=O)CCc1cc(OC)c(OC)c(OC)c1-2

- metabolised at 2 h [5]: 76%
SMILES: COc1cc2c(c(OC)c1OC)-c1ccc(NCCCCCCCC(=O)N[C@@H](CC(C)C)C(=O)OC3CCCC3)c(=O)cc1[C@@H](NC(C)=O)CC2
- pIC50 (HeLa): 5.31

- metabolised at 2 h [5]: 18%
SMILES: COc1cc2c(c(OC)c1OC)-c1ccc(NCCCC(=O)N[C@@H](CC(C)C)C(=O)OC3CCCC3)c(=O)cc1[C@@H](NC(C)=O)CC2
- pIC50 (HeLa): 5.92

SMILES: COC(=O)c1ccc2c(c1)[C@@H](NC(=O)CO)CCc1cc(OC)c(OC)c(OC)c1-2
- pIC50 (HaCaT): 7.80
- pIC50 (PANC-1 [3]): 7.10

SMILES: COc1cc2c(c(OC)c1OC)-c1ccc(OC)c(=O)cc1[C@@H](NC(=O)CN(OC)C1C[C@H](O)[C@H](O)CO1)CC2 (some centres undefined)
- pIC50 (SF-268 [7]): 6.52
- pIC50 (SF-268 [8]): 6.52
- pIC50 (HCT-116 [9]): 6.52
- pIC50 (HCT-116 [10]): 6.52

SMILES: COc1cc2c(c(OC)c1OC)-c1ccc(OC)c(=O)cc1[C@@H](n1cc(CCC(=O)Cc3ccc4oc(=O)ccc4c3)nn1)CC2
- pIC50 (BJAB): 7.22

SMILES: COc1ccc2c(c1)[C@@H](NC(C)=O)CCc1cc(OC)c(OC)c(OC)c1-2
- pIC50 (DU-145): 6.11
- pIC50 (PANC-1 [1]): 7.10
- pIC50 [6]: 6.52

- pIC50 [11]: 6.00
SMILES: COc1ccc2c(c1O)COCc1cc(OC)c(OC)c(OC)c1-2

SMILES: COc1cc2c(c(OC)c1OC)-c1ccc(OC)c(=O)cc1[C@@H](NC(=O)CN(OC)C1C[C@@H](O)[C@@H](O)CO1)CC2 (some centres undefined)
- pIC50 (SF-268 [7]): 6.52
- pIC50 (SF-268 [8]): 6.52
- pIC50 (HCT-116 [9]): 6.52
- pIC50 (HCT-116 [10]): 6.52

- metabolised at 2 h [5]: 33%
SMILES: COc1cc2c(c(OC)c1OC)-c1cc(NC(=O)c3ccc(CN[C@@H](CC(C)C)C(=O)OC4CCCC4)cc3)ccc1[C@@H](NC(C)=O)CC2
- pIC50 (HeLa): 5.83

- pIC50 [4]: 5.43
- pIC50 (KB): 7.96
- pIC50 (P388): 7.80
- pIC50 (A549): 12.00
- pIC50 (HCT-8): 6.75
SMILES: CCOC(=O)OC[C@H]1Cc2cc(OC)c(OC)c(OC)c2-c2ccc(SC)c(=O)cc21
- pIC50 (RPMI-7951): 12.00
- pIC50 (TE-671): 12.00

SMILES: COc1cc2c(c(OC)c1OC)-c1ccc(OC)c(=O)cc1[C@@H](NC(=O)CN(OC)C1O[C@@H]3OC(=O)[C@@H](O)[C@@H]3[C@@H]1O)CC2 (some centres undefined)
- pIC50 (SF-268 [7]): 6.52
- pIC50 (SF-268 [8]): 6.52
- pIC50 (HCT-116 [9]): 6.52
- pIC50 (HCT-116 [10]): 6.52

SMILES: COc1cc2c(c(OC)c1OC)-c1ccc(O)cc1[C@@H](NC(C)=O)CC2 [N-ACETYLCOLCHINOL]
- pIC50 (DU-145): 6.14
- pIC50 (PANC-1 [1]): 5.36
